Results reported in paper PMC9436767, “Optical control of the β2-adrenergic receptor with opto-prop-2: A cis-active azobenzene analog of propranolol” (iScience, 2022).
Values joined by “and” are separate entries in the source; they are usually repeats but may differ in a detail not shown here. Equal values may be shown once.

How the values were obtained:
[1] = Time-resolved light-induced isomerization by 1H NMR and LCMS
Description: The kinetic properties of light-induced isomer switching were further characterized using these wavelengths. Switching was monitored by ^1H NMR (Figures 2B and 2D) and LCMS (Figures 2C and 2E) analyses in tandem. The ^1H NMR signal of the ortho C-H proton adjacent to the ether function was selected as a clearly resolved signal to quantify the level of isomerization (Figure 2D).
NMR, LC and UV-Vis spectra were plotted in GraphPad Prism 8 and were visualized by fitting the data to a second order polynomial with a smooth function, using 4 neighboring data points. […] For the time-resolved isomerization experiments, integration of the peak areas was performed with Shimadzu and MestreNova software for LC and NMR integration, respectively. The normalized peak areas over time were fitted by non-linear regression in GraphPad Prism 8 using a one-phase exponential model which yields the t1/2 value of the isomerization reaction and the extrapolated PSS (i.e. the asymptote).

β2-AR [2] = molecular target: T1, β2-AR (Homo sapiens, UniProt P07550); test: [3H]DHA radioligand displacement on membranes of HEK293T cells expressing β2-AR; details: for Ki: β2-AR
Target sequence in this assay (P07550 whole entry): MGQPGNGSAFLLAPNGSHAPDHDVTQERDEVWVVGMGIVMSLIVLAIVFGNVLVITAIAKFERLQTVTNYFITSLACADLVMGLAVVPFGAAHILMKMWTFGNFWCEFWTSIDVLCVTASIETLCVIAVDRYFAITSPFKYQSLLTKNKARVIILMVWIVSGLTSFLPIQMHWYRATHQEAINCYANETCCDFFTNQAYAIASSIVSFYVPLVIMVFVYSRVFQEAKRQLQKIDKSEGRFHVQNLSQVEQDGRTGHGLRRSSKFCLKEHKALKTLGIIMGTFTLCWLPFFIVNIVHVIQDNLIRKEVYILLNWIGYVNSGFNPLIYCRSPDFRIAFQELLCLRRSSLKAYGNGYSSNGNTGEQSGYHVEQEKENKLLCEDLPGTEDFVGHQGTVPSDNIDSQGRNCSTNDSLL
Experimental: (§2) Membranes of HEK293T-cells transiently expressing the receptor of interest were co-incubated with the tritiated β1/β2-AR antagonist dihydroalprenolol ([^3H]DHA, Figure S2 depicts saturation binding experiments), together with increasing concentrations of the competing unlabeled ligand.
(§3) Two million HEK293T cells were seeded in a 10cm^2 dish and were transiently transfected the next day with 1 μg human β1-AR or the β2-AR plasmid DNA, 4 μg empty pcDEF3 plasmid DNA and 30 μg linear 25 kDa polyethyleneimine (PEI; Polysciences Warrington, USA) in a 150 mM NaCl solution. […] Two days after transfection, cells were resuspended and washed (3 times) with PBS and pelleted by centrifugation steps at 1500 g. After the final centrifugation step, cell pellets were reconstituted into ice-cold Tris-HCl buffer (15 mM, supplemented with 0.3 mM EDTA and 2 mM MgCl2 at pH7.4) and dounce-homogenised by plunging the pestle 10 times with 1,500 rpm (Tamson, the Netherlands). The homogenates were frozen and thawed twice using liquid nitrogen, after which the membranes were isolated using an ultra-centrifuge L70 at 40,000 g (Beckman Coulter, USA). Cell pellets were then washed and reconstituted in ice-cold 20 mM Tris-HCl buffer supplemented with 250 mM Sucrose at pH 7.4. Finally, the membrane samples where homogenized using a 23-gauge needle, snap-frozen with liquid nitrogen and stored until further experimentation at −80 °C. The protein content was determined using a BCA protein assay kit (Thermo Scientific, USA).
(§4) On the day of the experiment 0.25–0.5 μg membranes expressing either the β1-AR or the β2-AR, were co-incubated with [^3H]DHA (Perkin Elmer, USA) and increasing concentrations unlabeled ligand in HBSS buffer (Thermo Scientific, with Ca^2+ and Mg^2+) supplemented with 0.1% BSA for 1 h at 25 °C under gentile agitation. Either a 4 nM or 1 nM concentration of [^3H]DHA was used in combination with membranes expressing either the β1-AR or β2-AR, respectively. Binding reactions were terminated by filtration over a PEI coated GF/C filter (Perkin Elmer) using ice-cold 50 mM Tris-HCl buffer with 500 mM NaCl at pH 7.4. GF/C plates were dried at 52 °C and filter bound [^3H]DHA was quantified by adding 25 μL/well Microscint-O scintillation liquid and counting luminescence using the Wallac Microbeta counter, as described before.
(§5) IC50 values were determined by fitting the concentration-dependent displacement of [^3H]DHA by unlabeled ligands, with a three-parameter sigmoidal model in GraphPad Prism. […] Competition binding graphs represent the pooled data of ≥3 experiments, normalized to the fitted top and bottom of the reference sigmoidal displacement curve of unlabeled DHA.

β2-AR [3] = molecular target: T1, β2-AR; test: Conformational β2-AR BRET sensor in HEK293A cells
Target sequence in this assay (P07550 1-369): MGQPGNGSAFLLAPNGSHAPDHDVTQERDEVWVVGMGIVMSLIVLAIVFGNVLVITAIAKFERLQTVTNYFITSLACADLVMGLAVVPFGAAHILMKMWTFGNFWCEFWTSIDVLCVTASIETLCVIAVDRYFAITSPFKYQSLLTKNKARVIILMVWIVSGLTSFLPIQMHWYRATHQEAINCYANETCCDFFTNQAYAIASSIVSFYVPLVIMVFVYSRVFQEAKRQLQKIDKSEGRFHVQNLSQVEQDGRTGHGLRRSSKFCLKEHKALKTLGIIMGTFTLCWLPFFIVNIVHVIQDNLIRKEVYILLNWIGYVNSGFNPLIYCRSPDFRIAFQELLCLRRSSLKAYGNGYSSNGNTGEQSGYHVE
Experimental: The next day, cells were washed with HBSS and incubated with a 1/1000 stock solution of furimazine. […] Wells pre-incubated with 0.1% DMSO/HBSS control were treated with vehicle control.
Raw BRET ratios were defined as acceptor emission/donor emission.
Antagonist pKB values were calculated using the agonist potency and concentration together with the antagonist IC50 values, using the Cheng-Prusoff equation.

[4] = UV-Vis absorbance spectra; format: physicochemical; details: 25 μM in HBSS buffer with 1% DMSO
Experimental: (§1) Solubility in buffer was explored for all compounds using nephelometry ([Bevan and Lloyd, 2000]) and these studies indicate good solubility of all azobenzene photoswiches up to at least 100 μM (Figure S1). […] For all compounds, 360 nm induces a large change in absorbance spectrum compared with the non-illuminated (dark) compounds (Table 1, Figure 2A, and S1), indicating photoisomerization to the cis-isomer. The absorbance peak (λmax) of Opto-prop-1-3 ranged between 319 and 347 nm for the trans-isomers and between 423 and 429 for the cis-isomers (Table 1), as is typical for azobenzene compounds ([Hauwert et al., 2018]). […] The photochemical conversions were determined by continuous illumination of the Opto-prop compounds with near UV-light (360 ± 20 nm) as 10-mM solutions in DMSO. Based on LCMS analysis, it was observed that all compounds obtained a high level of conversion to the cis-isomer with a photostationary state (PSS) of >88 area % cis-isomer (i.e. PSScis; Table 1). Subsequent back-switching to PSStrans with 434 nm maintained 22–29 area % cis-isomer (Table 1). The thermal relaxation of the PSScis state of the photoswitchable ligands was monitored over time by measuring absorbance at 254 nm. Only minor thermal relaxation to the trans-isomer could be detected at 20°C (not shown). An estimate of the relaxation rate at 20 °C was determined using a method by Priimagi et al. ([Ahmed et al., 2017]), which was performed in Hanks’ balanced salt solution (HBSS) using increased temperatures to enhance the speed of thermal relaxation. The Opto-prop ligands are all very stable as cis-isomer after illumination, with thermal relaxation half-lives of >10 days at 20 °C (See Table 1 and Figure S1).
UV-Vis spectra were obtained using a Thermo-scientific Evolution 201 PC spectrophotometer. Illumination was executed using a Sutter instruments Lambda LS with a 300 Watt full-spectrum lamp connected to a Sutter instruments Lambda 10-3 optical filter changer equipped with 360 ± 20 nm, 400 ± 5 nm, 434 ± 9 nm and 460 ± 5 nm filters. The light intensity is 0.93 mW/mm^2 using the 360 ± 20 nm filter, 0.22 mW/mm^2 using the 400 ± 5 nm filter, 0.79 mW/mm^2 for the 434 ± 9 nm filter and 0.26 mW/mm^2 for the 460 ± 5 nm filter as measured using a Thorlabs PM16-401 power meter.
For the determination of the UV-Vis spectra shown in Figure 2A, compounds (25 μM in 1% DMSO/HBSS buffer) were illuminated in Hellma Suprasil quartz 114-QS cuvettes with either a 360, 400, 434 or 460 nm filter for the indicated time. For the determination of PSScis and PSStrans states by UV spectroscopy (Figures S1D–S1F), a solution of the compound in 1% DMSO/HBSS buffer (25 μM) in a vial was illuminated to PSS cis with 360 nm (typically 4–5 min) and subsequently to PSS trans with 434 nm (typically 2–5 min). UV spectra were recorded.

β2-AR [5] = molecular target: T1, β2-AR; test: Kinetic β-arrestin2 recruitment to β2-AR with 360 nm light flashes; format: cell-based; design: expressed in transfected cells; host or cells: HEK293T, transient (PEI); details: 1 μM with 32 nM isoprenaline; six 5-min cycles of 360 nm flashes
Experimental: It was further explored whether the activity of the β2-AR could be modulated dynamically by treating cells with light (Figure 5). Cells that overexpress a split-nanoluc luciferase biosensor system for βarrestin2 recruitment to the β2-AR were treated with isoprenaline in the presence of Opto-prop-2. A time-dependent activation of the receptor is observed for 10 min after which cells were pulsed with light flashes of 360 nm.
Cells incubated with Opto-prop-2 are depicted in green and magenta before and after illumination, respectively. Data points represent the mean ± SEM of the three experiments, normalized to the luminescence at 10 min as 100%.
HEK293T cells were transiently transfected with 2 μg plasmid DNA per million using linear PEI at a DNA:PEI weight-ratio of 1:6. ([Zarca et al., 2021]) The used DNA plasmids were β2-AR-SmBit (0.4 μg), β-arrestin2-LgBit (0.6 μg) and pcDEF3 (non-coding DNA; 1 μg). The DNA/PEI transfection mix in 150 mM NaCL was vortexed and incubated for 15 min before adding it to a cell suspension with a final concentration of 300,000 cell/mL. Cells were then immediately plated 30,000 cells/well on a white 96-well plate (Greiner). […] After 10 min the protocol setting were switched to treat cells repeadetly with 360 nm light flashes (40 times 200 flashes over 5 min) followed after each 5 min cycle with detection of luminescence, up to a total detection time of 40 min.
Target sequence in this assay (P07550 whole entry): as the sequence (P07550 whole entry) above

[6] = PSScis and PSStrans by LC analysis; format: physicochemical; details: LCMS area at isosbestic wavelength
Experimental: as §1
For the determination of PSScis and PSStrans values by LC analysis (Table 1), a solution of the compound in DMSO (10 mM) was illuminated to PSScis with 360 nm and subsequently to PSStrans with 434 nm. PSS aliquots were withdrawn, diluted with MeCN and subjected to LCMS analysis with the corresponding isosbestic points wavelength: 278, 263 and 308 nm for Opto-prop-1-3, respectively.

β1-AR = β1-AR (Homo sapiens, UniProt P08588); test: [3H]DHA radioligand displacement on membranes of HEK293T cells expressing β1-AR; details: for Ki: β1-AR
Sequence of β1-AR (P08588 whole entry): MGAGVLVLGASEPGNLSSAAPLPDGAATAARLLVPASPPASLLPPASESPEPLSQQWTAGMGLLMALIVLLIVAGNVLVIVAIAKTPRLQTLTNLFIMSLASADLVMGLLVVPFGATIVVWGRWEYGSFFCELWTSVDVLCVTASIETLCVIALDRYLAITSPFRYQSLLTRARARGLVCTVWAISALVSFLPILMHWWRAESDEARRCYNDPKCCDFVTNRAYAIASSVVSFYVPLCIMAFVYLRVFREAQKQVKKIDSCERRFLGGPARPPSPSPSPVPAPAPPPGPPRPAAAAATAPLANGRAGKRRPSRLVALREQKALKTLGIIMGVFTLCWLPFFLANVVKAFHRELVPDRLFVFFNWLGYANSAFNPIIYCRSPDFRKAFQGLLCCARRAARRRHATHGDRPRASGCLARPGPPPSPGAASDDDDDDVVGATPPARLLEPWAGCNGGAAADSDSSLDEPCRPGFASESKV
Experimental: as §2, §3, §4, §5

[7] = fold difference between Ki of trans and Ki at PSScis
[8] = isomer state with higher affinity
[9] = pKi PSScis, illuminated to PSScis (360 nm) before experiment
[10] = pKi trans, without prior illumination (trans-isomer)

isomerization half-life, 360 nm ([1]; 1H NMR, 10 mM in DMSO-d6): 4 min
isomerization half-life, 434 nm ([1]; 1H NMR, 10 mM in DMSO-d6): 3 min
cis-isomer at PSScis ([1]; 1H NMR, 360 nm, 10 mM in DMSO-d6): 86 mol%
cis-isomer at PSStrans ([1]; 1H NMR, 434 nm, 10 mM in DMSO-d6): 20 mol%
fitted cis-isomer at PSScis ([1]; LCMS, 360 nm): 94%
isomerization half-life to PSScis ([1]; LCMS, 360 nm): 4 min
fitted cis-isomer at PSStrans ([1]; LCMS, 434 nm): 23%
isomerization half-life to PSStrans ([1]; LCMS, 434 nm): 3 min
difference in binding affinity β2-AR vs β1-AR (β2-AR [2]; cis-isomer): 1.9 log unit
selectivity in binding β2-AR over β1-AR (β2-AR [2]; cis-isomer (PSScis)): 78 fold
fold Ki trans vs PSScis at β2-AR (β2-AR [2]; [7]): 587 fold
Active state at β2-AR (β2-AR [2]; [8]): cis
Ki (β2-AR [2]; [9]): 0.00251 µM
Ki (β2-AR [2]; pKi at PSStrans, at PSStrans (434 nm back-switching)): 0.0316 µM
Ki (β2-AR [2]; [10]): 1.58 µM
IC50 (β2-AR [3]): 0.0316 µM
Kb (β2-AR [3]): 0.002 µM
λmax cis ([4]; cis-isomer): 424 nm
λmax trans ([4]; trans-isomer): 319 nm
β2-AR activity (β-arrestin2 recruitment) after 360 nm light flashes (β2-AR [5]): a drop in β2-AR activity is observed
PSScis (% cis-isomer) ([6]; 10 mM in DMSO after illumination with 360 nm): 92.8 ± 0.4 % cis-isomer
fold Ki trans vs PSScis at β1-AR (β1-AR; [7]): 21 fold
Active state at β1-AR (β1-AR; [8]): cis
Ki (β1-AR; [9]): 0.2 µM
Ki (β1-AR; [10]): 5.01 µM
SMILES: CC(C)NCC(O)COc1cccc(N=Nc2ccccc2)c1 (centres unmarked) [Opto-prop-2]
PSStrans (% cis-isomer) ([6]; 10 mM in DMSO, 360 nm then 434 nm): 26 % cis-isomer and 25.9 ± 0.4 % cis-isomer
